# According to BindingDB's records for doi:10.1021/jm701348d (Inspire Pharmaceuticals, 2008):
# Several values for one entry are separate records, joined by “and”; a condition that tells them apart may be missing. Equal entries are not always repeated.
# Assay: Antagonist activity at P2Y12 receptor assessed as inhibition of ADP-induced human platelet aggregation by washed platelet assay
row,Compound,IC50
1,Nc1ncnc2c1ncn2[C@@H]1O[C@H](COP(=O)(O)OP(=O)(O)OP(=O)(O)OP(=O)(O)OC[C@@H]2O[C@H](n3cnc4c(N)ncnc43)[C@H]3OC(Cc4ccccc4)O[C@H]32)[C@H]2OC(Cc3ccccc3)O[C@H]21 (some centres not stated),11.7 µM
2,O=C(Nc1ccccc1)Nc1ncnc2c1ncn2[C@@H]1O[C@H](COP(=O)(O)OP(=O)(O)O)[C@@H](O)[C@H]1O,10.8 µM
3,O=c1ccn([C@@H]2O[C@H](COP(=O)(O)OP(=O)(O)OP(=O)(O)OP(=O)(O)OC[C@@H]3O[C@H](n4ccc(=O)[nH]c4=O)[C@H]4OC(c5ccccc5)O[C@H]43)[C@H]3OC(c4ccccc4)O[C@H]32)c(=O)[nH]1 (some centres not stated),8.29 µM
4,Nc1ncnc2c1ncn2[C@@H]1O[C@H](COP(=O)(O)OP(=O)(O)O)[C@H]2O[C@@H](Cc3ccccc3)O[C@H]21,23 µM
5,Nc1ncnc2c1ncn2[C@@H]1O[C@H](COP(=O)(O)O)[C@H]2OC(C#Cc3ccccc3)O[C@H]21 (some centres not stated),57.1 µM
6,O=c1ccn([C@@H]2O[C@H](COP(=O)(O)OP(=O)(O)OP(=O)(O)OP(=O)(O)OC[C@@H]3O[C@H](n4ccc(=O)[nH]c4=O)[C@@H](O)[C@H]3O)[C@@H]3OC(Cc4ccccc4)O[C@H]32)c(=O)[nH]1 (some centres not stated),27.1 µM
7,O=c1ccn([C@@H]2O[C@H](COP(=O)(O)OP(=O)(O)OP(=O)(O)OP(=O)(O)OC[C@@H]3O[C@H](n4ccc(=O)[nH]c4=O)[C@@H](O)[C@H]3O)[C@@H]3OC(c4ccccc4)O[C@H]32)c(=O)[nH]1 (some centres not stated),16.7 µM
8,O=C(Nc1ccc(F)cc1)Nc1ccn([C@@H]2O[C@H](COP(=O)(O)OP(=O)(O)OP(=O)(O)OP(=O)(O)OC[C@@H]3O[C@H](n4ccc(=O)[nH]c4=O)[C@H]4O[C@@H](Cc5ccccc5)O[C@H]43)[C@@H](O)[C@H]2O)c(=O)n1,23.9 µM
9,O=c1ccn([C@@H]2O[C@H](COP(=O)(O)OP(=O)(O)OP(=O)(O)OC[C@@H]3O[C@H](n4ccc(=O)[nH]c4=O)[C@@H](O)[C@H]3O)[C@H]3OC(Cc4ccccc4)O[C@H]32)c(=O)[nH]1 (some centres not stated),34.7 µM
10,O=c1ccn([C@@H]2O[C@H](COP(=O)(O)OP(=O)(O)OP(=O)(O)OP(=O)(O)OC[C@@H]3O[C@H](n4ccc(=O)[nH]c4=O)[C@@H](O)[C@H]3O)[C@H]3OC(/C=C/c4ccccc4)O[C@H]32)c(=O)[nH]1 (some centres not stated),8.68 µM and 8.8 µM
11,CCCCCCCC1O[C@@H]2[C@H](O1)[C@@H](COP(=O)(O)OP(=O)(O)OP(=O)(O)OP(=O)(O)OC[C@@H]1O[C@H](n3ccc(=O)[nH]c3=O)[C@H]3OC(CCCCCCC)O[C@H]31)O[C@H]2n1ccc(=O)[nH]c1=O (some centres not stated),10.7 µM
12,Nc1ncnc2c1ncn2[C@@H]1O[C@H](COP(=O)(O)O)[C@H]2OC(/C=C/c3ccccc3)O[C@H]21 (some centres not stated),45.1 µM
13,CNc1ccccc1C(=O)O[C@H]1[C@@H](O)[C@H](n2ccc(=O)[nH]c2=O)O[C@@H]1COP(=O)(O)OP(=O)(O)OP(=O)(O)OP(=O)(O)OC[C@@H]1O[C@H](n2ccc(=O)[nH]c2=O)[C@@H](OC(=O)c2ccccc2NC)[C@H]1O,7.59 µM
14,Nc1ncnc2c1ncn2[C@@H]1O[C@H](COP(=O)(O)OP(=O)(O)OP(=O)(O)OP(=O)(O)OC[C@@H]2O[C@H](n3cnc4c(N)ncnc43)[C@@H](O)[C@H]2O)[C@H]2OC(Cc3ccccc3)O[C@H]21 (some centres not stated),6.54 µM
15,O=C(Nc1ccc(F)cc1)Nc1ccn([C@@H]2O[C@H](COP(=O)(O)O)[C@H]3O[C@@H](Cc4ccccc4)O[C@H]32)c(=O)n1,11.2 µM
16,CCCCCCCC1O[C@@H]2[C@H](O1)[C@@H](COP(=O)(O)OP(=O)(O)OP(=O)(O)OP(=O)(O)OC[C@@H]1O[C@H](n3ccc(=O)[nH]c3=O)[C@@H](O)[C@H]1O)O[C@H]2n1ccc(=O)[nH]c1=O (some centres not stated),16.9 µM
17,O=C(Nc1ccc(F)cc1)Nc1ccn([C@@H]2O[C@H](COP(=O)(O)OP(=O)(O)OP(=O)(O)OP(=O)(O)OC[C@@H]3O[C@H](n4ccc(=O)[nH]c4=O)[C@@H](O)[C@H]3O)[C@H]3O[C@@H](Cc4ccccc4)O[C@H]32)c(=O)n1,12.9 µM

# The remaining molecules from weak to strong by IC50, led by results:
row,IC50,Compound
1,4.63 µM,O=c1ccn([C@@H]2O[C@H](COP(=O)(O)OP(=O)(O)OP(=O)(O)OC[C@@H]3O[C@H](n4ccc(=O)[nH]c4=O)[C@H]4OC(Cc5ccccc5)O[C@H]43)[C@H]3OC(Cc4ccccc4)O[C@H]32)c(=O)[nH]1 (some centres not stated)
2,3.3 µM,O=c1ccn([C@@H]2O[C@H](COP(=O)(O)OP(=O)(O)OP(=O)(O)OP(=O)(O)OC[C@@H]3O[C@H](n4ccc(=O)[nH]c4=O)[C@H]4OC(/C=C/c5ccccc5)O[C@H]43)[C@H]3OC(/C=C/c4ccccc4)O[C@H]32)c(=O)[nH]1 (some centres not stated)
3,3.11 µM,O=C(Nc1ccccc1)Nc1ncnc2c1ncn2[C@@H]1O[C@H](COP(=O)(O)O)[C@@H](O)[C@H]1O
4,1.82 µM,O=c1ccn([C@@H]2O[C@H](COP(=O)(O)OP(=O)(O)OP(=O)(O)OP(=O)(O)OC[C@@H]3O[C@H](n4ccc(=O)[nH]c4=O)[C@H]4OC(Cc5ccccc5)O[C@H]43)[C@H]3OC(Cc4ccccc4)O[C@H]32)c(=O)[nH]1 (some centres not stated)
5,0.522 µM,O=C(Nc1ccccc1)Nc1ncnc2c1ncn2[C@@H]1O[C@H](COP(=O)(O)OP(=O)(O)OP(=O)(O)OP(=O)(O)OC[C@@H]2O[C@H](n3cnc4c(NC(=O)Nc5ccccc5)ncnc43)[C@H]3O[C@@H](Cc4ccccc4)O[C@H]32)[C@H]2O[C@@H](Cc3ccccc3)O[C@H]21
6,0.288 µM,O=C(Nc1ccccc1)Nc1ncnc2c1ncn2[C@@H]1O[C@H](COP(=O)(O)O)[C@H]2OC(C#Cc3ccccc3)O[C@H]21 (some centres not stated)
7,0.237 µM,CCCCCCNC(=O)Nc1ncnc2c1ncn2[C@@H]1O[C@H](COP(=O)(O)O)[C@H]2OC(/C=C/c3ccccc3)O[C@H]21 (some centres not stated)
8,0.211 µM,CCCCCCNC(=O)Nc1ncnc2c1ncn2[C@@H]1O[C@H](COP(=O)(O)O)[C@H]2OC(C#Cc3ccccc3)O[C@H]21 (some centres not stated)
9,0.21 µM,O=C(Nc1ccccc1)Nc1ncnc2c1ncn2[C@@H]1O[C@H](COP(=O)(O)O)[C@H]2OC(/C=C/c3ccccc3)O[C@H]21 (some centres not stated)
10,0.16 µM,O=C(Nc1ccccc1)Nc1ncnc2c1ncn2[C@@H]1O[C@H](COP(=O)(O)O)[C@H]2OC(Cc3ccccc3)O[C@H]21 (some centres not stated)
11,0.053 µM,CCCCCCNC(=O)Nc1ncnc2c1ncn2[C@@H]1O[C@H](COP(=O)(O)O)[C@H]2OC(Cc3ccccc3)O[C@H]21 (some centres not stated)
12,0.052 µM,O=C(Nc1ccccc1)Nc1ncnc2c1ncn2[C@@H]1O[C@H](COP(=O)(O)OP(=O)(O)O)[C@H]2O[C@@H](Cc3ccccc3)O[C@H]21
13,0.041 µM,CCNC(=O)Nc1ncnc2c1ncn2[C@@H]1O[C@H](COP(=O)(O)O)[C@H]2OC(Cc3ccccc3)O[C@H]21 (some centres not stated)
14,0.0362 µM,O=C(Nc1ncnc2c1ncn2[C@@H]1O[C@H](COP(=O)(O)O)[C@H]2OC(Cc3ccccc3)O[C@H]21)NC1CCCC1 (some centres not stated)
15,0.013 µM,CCNC(=O)Nc1ncnc2c1ncn2[C@@H]1O[C@H](COP(=O)(O)O)[C@H]2OC(c3ccccc3)O[C@H]21 (some centres not stated)
